Our source for the EC50 values is patent publication US12258329B2 (Merck Sharp & Dohme LLC, priority 2018, dated 2025).

pEC50: −log10 of the molar value. Like-named read-outs stand apart in the source and are kept apart here.

The subject of the test is infected PBMCs (VSV-G pseudotyped HIV virus VSV-G/pNLG1-P2A-ΔEnv). Briefly: cells. The note with it: read-out: TACK EC50. Format: cell-based, human.

Regarding `Cc1nc(C)c(Cn2cnc(C(F)(F)C(F)(F)F)c(Oc3cc(Cl)cc(C#N)c3F)c2=O)c(=O)[nH]1` [Example 87, 5-chloro-3-((1-((2,4-dimethyl-6-oxo-1,6-dihydropyrimidin-5-yl)methyl)-6-oxo-4-(perfluoroethyl)-1,6-dihydropyrimidin-5-yl)oxy)-2-fluorobenzonitrile], the pEC50 (usually −log10 of the EC50, conventionally taken in molar units) (Homo sapiens, PBMC) was 6.66.
Still for that read-out and setting: the figure for `Cc1nc(C)c(Cn2cnc(C(F)(F)CF)c(Oc3cc(C(F)F)cc(C#N)c3C)c2=O)c(=O)[nH]1` [Example 5, 5-(difluoromethyl)-3-((1-((2,6-dimethyl-4-oxo-4,5-dihydropyrimidin-5-yl)methyl)-6-oxo-4-(1,1,2-trifluoroethyl)-1,6-dihydropyrimidin-5-yl)oxy)-2-methylbenzonitrile] is 6.73.
For the compound `Cc1nc(C)c(Cn2cnc(C(C)F)c(Oc3cc(Cl)cc(C#N)c3F)c2=O)c(=O)[nH]1` (single isomer, unassigned) [Example 31], the pEC50 is 6.40.
On to `Cc1nc(C)c(Cn2cnc(C(C)F)c(Oc3c(C)cc(C#N)cc3C)c2=O)c(=O)[nH]1` (single isomer, unassigned) [Example 43, (S) or (R)-4-((1-((2,4-dimethyl-6-oxo-1,6-dihydropyrimidin-5-yl)methyl)-4-(1-fluoroethyl)-6-oxo-1,6-dihydropyrimidin-5-yl)oxy)-3,5-dimethylbenzonitrile], for which, for the setting “Homo sapiens, PBMC”, the pEC50 was 6.36.
Same read-out and setting: the figure for `Cc1nc(CO)[nH]c(=O)c1Cn1cnc(C(F)(F)C(F)F)c(Oc2cc(Cl)cc(C#N)c2F)c1=O` [Example 45, 5-chloro-2-fluoro-3-((1-((2-(hydroxymethyl)-4-methyl-6-oxo-1,6-dihydropyrimidin-5-yl)methyl)-6-oxo-4-(1,1,2,2-tetrafluoroethyl)-1,6-dihydropyrimidin-5-yl)oxy)benzonitrile] is 6.59; for `Cc1nc(C(C)O)[nH]c(=O)c1Cn1cnc(C(F)(F)C(F)F)c(Oc2cc(Cl)cc(C#N)c2F)c1=O` (single isomer, unassigned) [Example 44] it is 6.48; for `Cc1nc(C)c(Cn2cnc(C(F)(F)C(F)F)c(Oc3c(C)cc(C#N)cc3C(F)F)c2=O)c(=O)[nH]1` [Example 20, 3-(difluoromethyl)-4-((1-((2,4-dimethyl-6-oxo-1,6-dihydropyrimidin-5-yl)methyl)-6-oxo-4-(1,1,2,2-tetrafluoroethyl)-1,6-dihydropyrimidin-5-y1)oxy)-5-methylbenzonitrile] it is 6.44.
Still for that read-out and setting: the figure for `Cc1nc(C)c(Cn2cnc(C(C)(F)F)c(Oc3c(C)cc(C#N)cc3Cl)c2=O)c(=O)[nH]1` [Example 12, 3-chloro-4-((4-(1,1-difluoroethyl)-1-((2,4-dimethyl-6-oxo-1,6-dihydropyrimidin-5-y1)methyl)-6-oxo-1,6-dihydropyrimidin-5-yl)oxy)-5-methylbenzonitrile] is 6.70.
Same read-out and setting: the figure for `Cc1nc(C)c(Cn2cnc(C(F)(F)C(F)F)c(Oc3c(C)cc(C#N)cc3C)c2=O)c(=O)[nH]1` [Example 75, 4-((1-((2,4-dimethyl-6-oxo-1,6-dihydropyrimidin-5-yl)methyl)-6-oxo-4-(1,1,2,2-tetrafluoroethyl)-1,6-dihydropyrimidin-5-yl)oxy)-3,5-dimethylbenzonitrile] is 6.68.
With `Cc1nc(C(C)O)[nH]c(=O)c1Cn1cnc(C(F)(F)C(F)F)c(Oc2cc(C(F)F)cc(C#N)c2C)c1=O` (single isomer, unassigned) [Example 54, 5-(difluoromethyl)-3-((1-((2-(1-hydroxyethyl)-4-methyl-6-oxo-1,6-dihydropyrimidin-5-yl)methyl)-6-oxo-4-(1,1,2,2-tetrafluoroethyl)-1,6-dihydropyrimidin-5-yl)oxy)-2-methylbenzonitrile], the pEC50 was 6.67.
The same measure, in the same setting: the figure for “(S) or (R)-3,5-dichloro-4-((1-((2,4- dimethyl-6-oxo-1,6-dihydropyrimidin- 5-y1)methyl)-4-(1-fluoroethyl)-6-oxo- 1,6-dihydropyrimidin-5-yl)oxy) benzonitrile [Example 17]” is 6.55.
Regarding `Cc1nc(C)c(Cn2cnc(C(F)(F)F)c(Oc3c(C)cc(C#N)cc3C)c2=O)c(=O)[nH]1` [Example 77, 4-((1-((2,4-dimethyl-6-oxo-1,6-dihydropyrimidin-5-yl)methyl)-6-oxo-4-(trifluoromethyl)-1,6-dihydropyrimidin-5-yl)oxy)-3,5-dimethylbenzonitrile], the pEC50 (Homo sapiens, PBMC) was 6.39.
On the same count and under the same terms, the figure for `Cc1nc(C)c(Cn2cnc(C(F)(F)C(F)F)c(Oc3cc(C#N)cc(C(F)F)c3)c2=O)c(=O)[nH]1` [Example 69, 3-(difluoromethyl)-5-((1-((2,4-dimethyl-6-oxo-1,6-dihydropyrimidin-5-yl)methyl)-6-oxo-4-(1,1,2,2-tetra-fluoroethyl)-1,6-dihydropyrimidin-5-yl)oxy)benzonitrile] is 6.47; for `Cc1nc(N)c(Cn2cnc(C(F)(F)C(F)(F)F)c(Oc3cc(Cl)cc(C#N)c3F)c2=O)c(=O)[nH]1` [Example 38, 3-((1-((4-amino-2-methyl-6-oxo-1,6-dihydropyrimidin-5-yl)methyl)-6-oxo-4-(perfluoroethyl)-1,6-dihydropyrimidin-5-yl)oxy)-5-chloro-2-fluorobenzonitrile] it is 6.32.
Regarding `CCc1nc(C)[nH]c(=O)c1Cn1cnc(C(F)(F)C(F)(F)F)c(Oc2cc(C(F)F)cc(C#N)c2C)c1=O` [Example 63, 5-(difluoromethyl)-3-((1-((4-ethyl-2-methyl-6-oxo-1,6-dihydropyrimidin-5-yl)methyl)-6-oxo-4-(perfluoroethyl)-1,6-dihydropyrimidin-5-yl)oxy)-2-methylbenzonitrile], under “Homo sapiens, PBMC”, the pEC50 is 6.56.
Still for that read-out and setting: the figure for `Cc1nc(C)c(Cn2cnc(C(C)F)c(Oc3c(C)cc(C#N)cc3Cl)c2=O)c(=O)[nH]1` (single isomer, unassigned) [Example 18, (S) or (R)-3-chloro-4-((1-((2,4-dimethyl-6-oxo-1,6-dihydropyrimidin-5-y1)methyl)-4-(1-fluoroethyl)-6-oxo-1,6-dihydropyrimidin-5-yl)oxy)-5-methylbenzonitrile] is 6.89; for `Cc1cc(C#N)c(Cl)c(Oc2c(C(F)(F)C(F)F)ncn(Cc3c(C)nc(C)[nH]c3=O)c2=O)c1` [Example 68, 2-chloro-3-((1-((2,4-dimethyl-6-oxo-1,6-dihydropyrimidin-5-yl)methyl)-6-oxo-4-(1,1,2,2-tetrafluoroethyl)-1,6-dihydropyrimidin-5-yl)oxy)-5-methylbenzonitrile] it is 6.32; for `Cc1cc(C#N)c(F)c(Oc2c(C(F)(F)C(F)(F)F)ncn(Cc3c(C)nc(C)[nH]c3=O)c2=O)c1` [Example 93, 3-((1-((2,4-dimethyl-6-oxo-1,6-dihydropyrimidin-5-yl)methyl)-6-oxo-4-(perfluoroethyl)-1,6-dihydropyrimidin-5-yl)oxy)-2-fluoro-5-methylbenzonitrile] it is 6.76.
Turning to `COc1c(C#N)cc(C(F)F)cc1Oc1c(C(C)F)ncn(Cc2c(C)nc(C)[nH]c2=O)c1=O` (single isomer, unassigned) [Example 36], the pEC50 is 7.14.
`Cc1nc(N)c(Cn2cnc(C(F)(F)F)c(Oc3cc(C(F)F)cc(C#N)c3C)c2=O)c(=O)[nH]1` [Example 60, 3-((1-((4-amino-2-methyl-6-oxo-1,6-dihydropyrimidin-5-yl)methyl)-6-oxo-4-(trifluoromethyl)-1,6-dihydropyrimidin-5-yl)oxy)-5-(difluoromethyl)-2-methylbenzonitrile]: the pEC50 (Homo sapiens, PBMC) was 6.64.
Same read-out and setting: the figure for `Cc1nc(CO)[nH]c(=O)c1Cn1cnc(C(F)(F)C(F)F)c(Oc2cc(C(F)F)cc(C#N)c2C)c1=O` [Example 48, 5-(difluoromethyl)-3-((1-((2-(hydroxymethyl)-4-methyl-6-oxo-1,6-dihydropyrimidin-5-yl)methyl)-6-oxo-4-(1,1,2,2-tetrafluoroethyl)-1,6-dihydropyrimidin-5-yl)oxy)-2-methylbenzonitrile] is 6.47.
The same measure, in the same setting: the figure for `Cc1nc(C)c(Cn2cnc(C(F)(F)C(F)(F)F)c(Oc3cc(C(F)F)cc(C#N)c3C)c2=O)c(=O)[nH]1` [Example 83] is 6.60.
As to `Cc1nc[nH]c(=O)c1Cn1cnc(C(F)(F)C(F)F)c(Oc2cc(C(F)F)cc(C#N)c2C)c1=O` [Example 79, 5-(difluoromethyl)-2-methyl-3-((1-((4-methyl-6-oxo-1,6-dihydropyrimidin-5-yl)methyl)-6-oxo-4-(1,1,2,2-tetra-fluoroethyl)-1,6-dihydropyrimidin-5-yl)oxy)benzonitrile], the pEC50 (Homo sapiens, PBMC) is 6.34.
Still for that read-out and setting: the figure for `Cc1nc(C)c(Cn2cnc(C(F)(F)C(F)F)c(Oc3c(C)cc(C#N)cc3C3CC3)c2=O)c(=O)[nH]1` [Example 19, 3-cyclopropyl-4-((1-((2,4-dimethyl-6-oxo-1,6-dihydropyrimidin-5-yl)methyl)-6-oxo-4-(1,1,2,2-tetrafluoroethyl)-1,6-dihydropyrimidin-5-yl)oxy)-5-methylbenzonitrile] is 6.50.
Still for that read-out and setting: the figure for `Cc1nc(C(C)O)[nH]c(=O)c1Cn1cnc(C(F)(F)C(F)F)c(Oc2cc(C(F)F)cc(C#N)c2C)c1=O` (single isomer, unassigned) [Example 53, 5-(difluoromethyl)-3-((1-((2-(1-hydroxyethyl)-4-methyl-6-oxo-1,6-dihydropyrimidin-5-yl)methyl)-6-oxo-4-(1,1,2,2-tetrafluoroethyl)-1,6-dihydropyrimidin-5-yl)oxy)-2-methylbenzonitrile] is 6.41; for `Cc1nc(C2CC2)c(Cn2cnc(C(F)(F)C(F)F)c(Oc3cc(C(F)F)cc(C#N)c3C)c2=O)c(=O)[nH]1` [Example 62] it is 6.39.
Turning to `Cc1nc(C)c(Cn2cnc(C(F)(F)C(F)F)c(Oc3c(C)cc(C#N)cc3Cl)c2=O)c(=O)[nH]1` [Example 98, 3-chloro-4-((1-((2,4-dimethyl-6-oxo-1,6-dihydropyrimidin-5-yl)methyl)-6-oxo-4-(1,1,2,2-tetrafluoroethyl)-1,6-dihydropyrimidin-5-yl)oxy)-5-methylbenzonitrile], under “Homo sapiens, PBMC”, the pEC50 was 6.74.
Same read-out and setting: the figure for `Cc1nc(C)c(Cn2cnc(C(F)(F)F)c(Oc3cc(Cl)cc(C#N)c3Cl)c2=O)c(=O)[nH]1` [Example 90, 2,5-dichloro-3-((1-((2,4-dimethyl-6-oxo-1,6-dihydropyrimidin-5-yl)methyl)-6-oxo-4-(trifluoromethyl)-1,6-dihydropyrimidin-5-yl)oxy) benzonitrile] is 6.31.
